One assay concerns the target EP2 (Homo sapiens (Human), UniProt P43116).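 Note: antagonism of PGE2-stimulated cAMP accumulation in SF295 human glioblastoma cells with endogenous EP2, cAMP read by HTRF, expressed relative to DMSO control.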
A further assay has as its target EP4 (Homo sapiens (Human), UniProt P35408). As to the kind of experiment: hEP4 cAMP assay (BT549 breast cancer cells, HTRF cAMP). It counts as cell-based. The settings on record: antagonistic activity; mean values where measured multiple times. The procedure: Plate is pre-incubated 45 minutes at room temperature. Subsequently, 2.5 microliters of PGE2 (final conc. 6 nM) are transferred into the assay plate. Plate is incubated 30 minutes at room temperature.
(In general: Changes in cAMP serve as a functional read-out for many G protein-coupled receptors.)

Experimental findings from US12011444B2, “N-substituted indole derivatives as PGE2 receptor modulators” (Idorsia Pharmaceuticals Ltd, priority 2015, dated 2024) are described below.

The term IC50 denotes the concentration needed to halve the response being measured. High values mean a need for much substance, low ones inhibition by little substance.

Molecules are shown by their SMILES.

EP4, sequence (P35408 whole entry): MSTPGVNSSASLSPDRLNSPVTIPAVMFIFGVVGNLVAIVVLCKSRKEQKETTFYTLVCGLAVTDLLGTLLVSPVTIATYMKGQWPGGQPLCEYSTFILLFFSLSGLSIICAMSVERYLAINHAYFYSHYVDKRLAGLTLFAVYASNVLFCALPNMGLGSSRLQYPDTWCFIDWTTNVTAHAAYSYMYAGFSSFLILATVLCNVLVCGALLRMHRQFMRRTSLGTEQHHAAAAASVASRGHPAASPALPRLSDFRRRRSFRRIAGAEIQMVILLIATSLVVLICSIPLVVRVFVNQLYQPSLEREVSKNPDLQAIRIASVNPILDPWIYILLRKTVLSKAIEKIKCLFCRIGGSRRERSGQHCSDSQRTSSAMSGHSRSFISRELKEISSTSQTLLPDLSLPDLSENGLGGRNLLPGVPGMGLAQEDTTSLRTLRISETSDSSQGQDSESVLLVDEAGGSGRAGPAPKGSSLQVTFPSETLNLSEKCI
EP2, sequence (P43116 whole entry): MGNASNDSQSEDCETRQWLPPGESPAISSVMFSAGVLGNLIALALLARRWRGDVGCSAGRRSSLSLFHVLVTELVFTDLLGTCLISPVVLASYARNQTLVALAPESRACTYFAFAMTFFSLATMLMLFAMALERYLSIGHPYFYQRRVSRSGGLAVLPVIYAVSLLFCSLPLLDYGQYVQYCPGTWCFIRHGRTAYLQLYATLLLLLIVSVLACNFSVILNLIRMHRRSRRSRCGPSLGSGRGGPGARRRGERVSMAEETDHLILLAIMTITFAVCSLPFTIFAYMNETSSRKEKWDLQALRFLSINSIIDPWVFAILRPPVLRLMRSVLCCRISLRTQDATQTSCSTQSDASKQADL

For `COc1cccc2c1cc(C)n2CCNc1cc(-c2cc(Cl)c(C(=O)O)c(OCC(F)(F)F)c2)ncn1` [compound 720], the half-maximal inhibitory concentration (IC50) against EP2 worked out at 10 nM; at EP4 it was 150 nM.

Turning to `COc1cc(F)cc2c1cc(C)n2CCNc1cc(-c2cc(Cl)c(C(=O)O)c(OCC(F)(F)F)c2)ncn1` [compound 721], the concentration for half-maximal inhibition (IC50) is 18 nM against EP2 and 60 nM against EP4.

Regarding `COc1cc(F)c(F)c2c1cc(C)n2CCNc1cc(-c2cc(Cl)c(C(=O)O)c(OCC(F)(F)F)c2)ncn1` [compound 722], the IC50 at EP2 is 32 nM; on EP4, 80 nM.

As to `Cc1cc(F)cc2c1cc(C)n2CCNc1cc(-c2cc(Cl)c(C(=O)O)c(OCC(F)(F)F)c2)ncn1` [compound 723], the IC50 at EP2 stood at 37 nM; on EP4 it was 287 nM.

Turning to `Cc1cc(F)c(F)c2c1cc(C)n2CCNc1cc(-c2cc(Cl)c(C(=O)O)c(OCC(F)(F)F)c2)ncn1` [compound 724], the concentration for half-maximal inhibition (IC50) at EP2 worked out at 57 nM; against EP4, 206 nM.

As for `COc1ccc(F)c2c1cc(C)n2CCNc1cc(-c2cc(Cl)c(C(=O)O)c(OCC(F)(F)F)c2)ncn1` [compound 725], the half-inhibitory concentration (IC50) against EP2 was determined as 6 nM; against EP4, 58 nM.

Regarding `COc1cc(F)cc2c1cc(C)n2CCNc1cc(-c2cccc(-n3cccn3)c2)ncn1` [compound 726], the concentration for half-maximal inhibition (IC50) is 41 nM against EP2 and 388 nM against EP4.

Regarding `COc1cc(F)cc2c1cc(C)n2CCNc1cc(-c2ccc(-c3ccccn3)cc2)ncn1` [compound 727], the IC50 against EP2 is 34 nM; on EP4, 238 nM.

Consider `COc1cc(F)cc2c1cc(C)n2CCNc1cc(-c2ccc3ccncc3c2)ncn1` [compound 728], for which the IC50 stood at 36 nM against EP2 and 109 nM on EP4.

Consider `Cc1cc(F)cc2c1cc(C)n2CCNc1cc(-c2ccc(-c3ccccn3)cc2)ncn1` [compound 730], for which the concentration for half-maximal inhibition (IC50) against EP2 was determined as 30 nM; at EP4 it was 489 nM.

With `Cc1cc(F)cc2c1cc(C)n2CCNc1cc(-c2ccc3ccncc3c2)ncn1` [compound 731], the results for the half-maximal inhibitory concentration (IC50) against EP2 and against EP4 were 36 nM and 276 nM, respectively.

On to `Cc1cc(F)cc2c1cc(C)n2CCNc1cc(-c2ccc3ncccc3c2)ncn1` [compound 732], for which the IC50 on EP2 came out at 41 nM; on EP4, 341 nM.

Take `Cc1cc(F)cc2c1cc(C)n2CCNc1cc(-c2ccc3nccnc3c2)ncn1` [compound 733]: the concentration for half-maximal inhibition (IC50) was 88 nM on EP2 and 809 nM on EP4.

Take `Cc1cnoc1-c1ccc(-c2cc(NCCn3c(C)cc4c(C)cc(F)cc43)ncn2)cc1` [compound 734]: the 50% inhibitory concentration (IC50) on EP2 was 95 nM; against EP4, 465 nM.

Turning to `Cc1cnoc1-c1ccc(-c2cc(NCCn3c(C)cc4c(C)ccc(F)c43)ncn2)cc1` [compound 735], the IC50 came out at 93 nM against EP2 and 620 nM against EP4.

With `COc1cc(F)cc2c1cc(C)n2CCNc1cc(-c2ccc(-c3oncc3C)cc2)ncn1` [compound 736, [2-(6-Fluoro-4-methoxy-2-methyl-indol-1-yl)-ethyl]-{6-[4-(4-methyl-isoxazol-5-yl)-phenyl]-pyrimidin-4-yl}-amine], the IC50 against EP2 worked out at 39 nM; against EP4 it was 399 nM.

Regarding `COc1ccc(F)c2c1cc(C)n2CCNc1cc(-c2ccc(-c3oncc3C)cc2)ncn1` [compound 737, [2-(7-Fluoro-4-methoxy-2-methyl-indol-1-yl)-ethyl]-{6-[4-(4-methyl-isoxazol-5-yl)-phenyl]-pyrimidin-4-yl}-amine], the IC50 against EP2 was 25 nM; on EP4 it was 156 nM.

In the case of `COc1cc(F)c(F)c2c1cc(C)n2CCNc1cc(-c2ccc(-c3oncc3C)cc2)ncn1` [compound 738], the IC50 on EP2 turned out to be 63 nM; against EP4, 177 nM.

For `Cc1ccc(F)c2c1cc(C)n2CCNc1cc(-c2ccc3nn[nH]c3c2)ncn1` [compound 739, [6-(3H-Benzotriazol-5-yl)-pyrimidin-4-yl]-[2-(7-fluoro-2,4-dimethyl-indol-1-yl)-ethyl]-amine], the half-maximal inhibitory concentration (IC50) was found to be 43 nM on EP2 and 450 nM on EP4.
